In patent publication US7008905B2, “Method of combating undesired plant growth on cereals” (BASF Aktiengesellschaft, priority 2000, dated 2006):

How the values were obtained:
Assay type in all cases: in vivo
[1] = system: Stellaria media; experiment: Post-emergence test, weed control; conditions: 2–4 weeks after treatment, rating 0-100 (100=death), Table 5
Summary of the method: (§1)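 Plants sprayed after emergence at roughly 0.030–0.240 kg/ha per pot are held under standard greenhouse conditions. Ratings taken at 2 to 4 weeks run from 0, growth as untreated, to 100, death.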

[2] = system: Lamium purpureum; experiment: Post-emergence test, weed control; conditions: 2–4 weeks after treatment, rating 0-100 (100=death), Table 5
Summary of the method: as §1

[3] = system: Matricaria inodora; experiment: Post-emergence test, weed control; conditions: 2–4 weeks after treatment, rating 0-100 (100=death), Table 5
Summary of the method: as §1

[4] = system: Galium aparine; experiment: Post-emergence test, weed control; conditions: 2–4 weeks after treatment, rating 0-100 (100=death), Table 5
Summary of the method: as §1

[5] = system: HORVW; experiment: Pre-emergence test, selectivity; conditions: 3 weeks after treatment, rating 0-100 (100=death), Table 2
Summary of the method: (§2)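 Using a 900 l/ha spray volume, test formulations are applied to newly sown soil at five rates from 15 to 240 g/ha. Each formulation is an acetone solution containing 0.4% w/w wetting agent, diluted with water; visual 0–100 ratings follow at three weeks.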

[6] = system: Triticum aestivum variety “Monopol”; experiment: Pre-emergence test, selectivity; conditions: 3 weeks after treatment, rating 0-100 (100=death), Table 2
Summary of the method: as §2

[7] = system: Triticum aestivum variety “Kanzler”; experiment: Pre-emergence test, selectivity; conditions: 3 weeks after treatment, rating 0-100 (100=death), Table 2
Summary of the method: as §2

[8] = system: Hordeum vulgare variety “Mammut”; experiment: Pre-emergence test, selectivity; conditions: 3 weeks after treatment, rating 0-100 (100=death), Table 2
Summary of the method: as §2

[9] = system: Polygonum convolvulus; experiment: Pre-emergence test, weed control; conditions: 3 weeks after treatment, rating 0-100 (100=death), Table 1
Summary of the method: as §2

[10] = system: Stellaria media; experiment: Pre-emergence test, weed control; conditions: 3 weeks after treatment, rating 0-100 (100=death), Table 1
Summary of the method: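 Herbicidal effect was scored visually on a 0–100 scale (100 = death, 0 = untreated-like) three weeks after treatment. Soil was horticultural loam sprayed just after sowing with aqueous-diluted acetone/0.4% TRITON X-155 formulations at 15–240 g a.i./ha (900 L/ha).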

[11] = system: Veronica persica; experiment: Pre-emergence test, weed control; conditions: 3 weeks after treatment, rating 0-100 (100=death), Table 1
Summary of the method: as §2

[12] = system: Lamium purpureum; experiment: Pre-emergence test, weed control; conditions: 3 weeks after treatment, rating 0-100 (100=death), Table 1
Summary of the method: as §2

[13] = system: Matricaria inodora; experiment: Pre-emergence test, weed control; conditions: 3 weeks after treatment, rating 0-100 (100=death), Table 1
Summary of the method: as §2

[14] = system: Galium aparine; experiment: Pre-emergence test, weed control; conditions: 3 weeks after treatment, rating 0-100 (100=death), Table 1
Summary of the method: as §2

[15] = system: Apera spica-venti; experiment: Pre-emergence test, weed control; conditions: 3 weeks after treatment, rating 0-100 (100=death), Table 1
Summary of the method: as §2

[16] = system: Poa annua; experiment: Pre-emergence test, weed control; conditions: 3 weeks after treatment, rating 0-100 (100=death), Table 1
Summary of the method: as §2

[17] = system: Alopecurus myosuroides; experiment: Pre-emergence test, weed control; conditions: 3 weeks after treatment, rating 0-100 (100=death), Table 1
Summary of the method: as §2

[18] = system: Lolium perenne; experiment: Pre-emergence test, weed control; conditions: 3 weeks after treatment, rating 0-100 (100=death), Table 1
Summary of the method: as §2

[19] = system: Setaria viridis; experiment: Pre-emergence test, weed control; conditions: 3 weeks after treatment, rating 0-100 (100=death), Table 1
Summary of the method: as §2

[20] = system: wheat; experiment: Post-emergence test, tolerance in wheat; conditions: in vivo
Experimental: These acetone solutions are diluted with water and the resulting formulations applied at dosage levels equivalent of about 0.030 to 0.240 kg per hectare of test compound per pot. After spraying the plants are placed an greenhouse benches and are cared for in the usual manner, commensurate with conventional greenhouse practices. From 2 to 4 weeks after treatment, the seedling plants are examined and rated according to the rating system provided above. A rating 0 indicates growth as untreated control, a rating 100 indicates death.

In the case of `Cc1nc(-c2ccc(C(F)(F)F)cc2)nc(Oc2cccc(C(F)(F)F)c2)c1C` [REF-2], the “STEME weed control rating” value ([1]; 0.030 kg/ha) is reported as 45, the “STEME weed control rating” value ([1]; 0.060 kg/ha) is reported as 50 and the “STEME weed control rating” value ([1]; 0.120 kg/ha) is reported as 55. For the same compound, the “STEME weed control rating” value ([1]; 0.240 kg/ha) was 80, the “LAMPU weed control rating” value ([2]; 0.030 kg/ha) was 85 and the “LAMPU weed control rating” value ([2]; 0.060 kg/ha) was 90. For the same compound, the “LAMPU weed control rating” value ([2]; 0.120 kg/ha) was 92, the “LAMPU weed control rating” value ([2]; 0.240 kg/ha) was 93 and the “MATIN weed control rating” value ([3]; 0.030 kg/ha) was 35. The “MATIN weed control rating” value ([3]; 0.060 kg/ha) was 45, the “MATIN weed control rating” value ([3]; 0.120 kg/ha) was 55 and the “MATIN weed control rating” value ([3]; 0.240 kg/ha) was 60. The “GALAP weed control rating” value ([4]; 0.030 kg/ha) was 50, the “GALAP weed control rating” value ([4]; 0.060 kg/ha) was 80 and the “GALAP weed control rating” value ([4]; 0.120 kg/ha) was 85. For the same compound, the “GALAP weed control rating” value ([4]; 0.240 kg/ha) was 85, the “HORVW rating (Selectivity)” value ([5]; 0.030 kg/ha) was 10 and the “HORVW rating (Selectivity)” value ([5]; 0.060 kg/ha) was 10. For the same compound, the “HORVW rating (Selectivity)” value ([5]; 0.120 kg/ha) was 20, the “HORVW rating (Selectivity)” value ([5]; 0.240 kg/ha) was 30 and the “TRZAWM rating (Selectivity)” value ([6]; 0.030 kg/ha) was 1. The “TRZAWM rating (Selectivity)” value ([6]; 0.060 kg/ha) was 1, the “TRZAWM rating (Selectivity)” value ([6]; 0.120 kg/ha) was 2 and the “TRZAWM rating (Selectivity)” value ([6]; 0.240 kg/ha) was 5. The “TRZAWK rating (Selectivity)” value ([7]; 0.030 kg/ha) was 1, the “TRZAWK rating (Selectivity)” value ([7]; 0.060 kg/ha) was 1 and the “TRZAWK rating (Selectivity)” value ([7]; 0.120 kg/ha) was 1. For the same compound, the “TRZAWK rating (Selectivity)” value ([7]; 0.240 kg/ha) was 5, the “HORVWM rating (Selectivity)” value ([8]; 0.030 kg/ha) was 3 and the “HORVWM rating (Selectivity)” value ([8]; 0.060 kg/ha) was 5. The “HORVWM rating (Selectivity)” value ([8]; 0.120 kg/ha) was 18, the “HORVWM rating (Selectivity)” value ([8]; 0.240 kg/ha) was 25 and the “POLCO weed control rating” value ([9]; 0.015 kg/ha) was 0. The “POLCO weed control rating” value ([9]; 0.030 kg/ha) was 0, the “POLCO weed control rating” value ([9]; 0.060 kg/ha) was 0 and the “POLCO weed control rating” value ([9]; 0.120 kg/ha) was 30. The “POLCO weed control rating” value ([9]; 0.240 kg/ha) was 80, the “STEME weed control rating” value ([10]; 0.015 kg/ha) was 0 and the “STEME weed control rating” value ([10]; 0.060 kg/ha) was 20. For the same compound, the “STEME weed control rating” value ([10]; 0.120 kg/ha) was 97, the “STEME weed control rating” value ([10]; 0.240 kg/ha) was 100 and the “VERPE weed control rating” value ([11]; 0.015 kg/ha) was 25. The “VERPE weed control rating” value ([11]; 0.030 kg/ha) was 99, the “VERPE weed control rating” value ([11]; 0.060 kg/ha) was 100 and the “VERPE weed control rating” value ([11]; 0.120 kg/ha) was 100. For the same compound, the “VERPE weed control rating” value ([11]; 0.240 kg/ha) was 100, the “LAMPU weed control rating” value ([12]; 0.030 kg/ha) was 40 and the “LAMPU weed control rating” value ([12]; 0.060 kg/ha) was 75. The “LAMPU weed control rating” value ([12]; 0.120 kg/ha) was 98, the “LAMPU weed control rating” value ([12]; 0.240 kg/ha) was 100 and the “MATIN weed control rating” value ([13]; 0.015 kg/ha) was 95. For the same compound, the “MATIN weed control rating” value ([13]; 0.030 kg/ha) was 98, the “MATIN weed control rating” value ([13]; 0.060 kg/ha) was 98 and the “MATIN weed control rating” value ([13]; 0.120 kg/ha) was 99. The “MATIN weed control rating” value ([13]; 0.240 kg/ha) was 99, the “GALAP weed control rating” value ([14]; 0.015 kg/ha) was 0 and the “GALAP weed control rating” value ([14]; 0.030 kg/ha) was 0. For the same compound, the “GALAP weed control rating” value ([14]; 0.060 kg/ha) was 3, the “GALAP weed control rating” value ([14]; 0.120 kg/ha) was 5 and the “GALAP weed control rating” value ([14]; 0.240 kg/ha) was 50. The “APESV weed control rating” value ([15]; 0.015 kg/ha) was 80, the “APESV weed control rating” value ([15]; 0.030 kg/ha) was 85 and the “APESV weed control rating” value ([15]; 0.060 kg/ha) was 98. The “APESV weed control rating” value ([15]; 0.120 kg/ha) was 100, the “APESV weed control rating” value ([15]; 0.240 kg/ha) was 100 and the “POAAN weed control rating” value ([16]; 0.015 kg/ha) was 65. The “POAAN weed control rating” value ([16]; 0.030 kg/ha) was 95, the “POAAN weed control rating” value ([16]; 0.060 kg/ha) was 97 and the “POAAN weed control rating” value ([16]; 0.120 kg/ha) was 100. The “POAAN weed control rating” value ([16]; 0.240 kg/ha) was 100, the “ALOMY weed control rating” value ([17]; 0.015 kg/ha) was 0 and the “ALOMY weed control rating” value ([17]; 0.030 kg/ha) was 5. The “ALOMY weed control rating” value ([17]; 0.060 kg/ha) was 15, the “ALOMY weed control rating” value ([17]; 0.120 kg/ha) was 65 and the “ALOMY weed control rating” value ([17]; 0.240 kg/ha) was 70. The “LOLPE weed control rating” value ([18]; 0.015 kg/ha) was 5, the “LOLPE weed control rating” value ([18]; 0.030 kg/ha) was 30 and the “LOLPE weed control rating” value ([18]; 0.060 kg/ha) was 60. The “LOLPE weed control rating” value ([18]; 0.120 kg/ha) was 93, the “LOLPE weed control rating” value ([18]; 0.240 kg/ha) was 97 and the “SETVI weed control rating” value ([19]; 0.015 kg/ha) was 65. For the same compound, the “SETVI weed control rating” value ([19]; 0.060 kg/ha) was 97, the “SETVI weed control rating” value ([19]; 0.120 kg/ha) was 100 and the “SETVI weed control rating” value ([19]; 0.240 kg/ha) was 100. For the same compound, the “maximum tolerated dose in wheat / dose at which sufficiently selective in wheat” value [20] was “similarly selective in wheat”.
